Source: PMC6402191 (Clinical and Translational Science, 2017)

Molecular target: T1, OATP1B1 (Homo sapiens, UniProt Q9Y6L6)
T1 sequence (Q9Y6L6 1-691): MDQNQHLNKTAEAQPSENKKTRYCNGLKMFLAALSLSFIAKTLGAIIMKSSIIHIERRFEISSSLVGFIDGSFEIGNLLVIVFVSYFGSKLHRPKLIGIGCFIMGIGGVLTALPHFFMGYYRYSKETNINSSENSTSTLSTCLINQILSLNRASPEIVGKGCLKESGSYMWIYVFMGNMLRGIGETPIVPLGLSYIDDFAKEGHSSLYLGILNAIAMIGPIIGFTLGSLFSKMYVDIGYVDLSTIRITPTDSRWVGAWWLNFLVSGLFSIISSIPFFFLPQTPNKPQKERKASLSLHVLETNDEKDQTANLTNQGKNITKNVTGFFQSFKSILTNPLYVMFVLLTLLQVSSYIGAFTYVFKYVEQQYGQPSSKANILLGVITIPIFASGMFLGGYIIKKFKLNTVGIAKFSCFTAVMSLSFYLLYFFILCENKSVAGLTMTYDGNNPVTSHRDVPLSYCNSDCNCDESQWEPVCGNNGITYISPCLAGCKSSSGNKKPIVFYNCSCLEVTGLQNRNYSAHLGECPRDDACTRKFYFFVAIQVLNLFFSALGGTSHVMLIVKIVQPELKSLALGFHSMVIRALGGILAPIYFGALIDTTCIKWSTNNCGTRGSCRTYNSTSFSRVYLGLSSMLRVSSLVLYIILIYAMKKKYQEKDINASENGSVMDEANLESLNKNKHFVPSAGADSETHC
Assay: Baricitinib substrate study in OATP1B1-transfected HEK-PEAK cells
Assay type: in vitro ADME

OATP1B1 substrate: not a substrate
Compound: CCS(=O)(=O)N1CC(CC#N)(n2cc(-c3ncnc4[nH]ccc34)cn2)C1 [Baricitinib]
